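Cells were grown in 96-well plates and exposed to each compound for 48 hours at five concentrations; endpoints were interpolated linearly between bracketing concentrations, or set to the highest concentration if not reached. TGI: total growth inhibition.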
Key:
Experiment in all cases: NCI tumour cell line growth inhibition, 48 h
786-0 renal = tested on: 786-0 renal
SN12C renal = tested on: SN12C renal
EKVX NSCLC = tested on: EKVX NSCLC
DU-145 prostate = tested on: DU-145 prostate
MALME-3M melanoma = tested on: MALME-3M melanoma
MDA-N = tested on: MDA-N
NCI-H522 lung = tested on: NCI-H522 lung
HOP-92 NSCLC = tested on: HOP-92 NSCLC
SNB-19 CNS = tested on: SNB-19 CNS
MCF7 breast = tested on: MCF7 breast
OVCAR-3 ovarian = tested on: OVCAR-3 ovarian
SK-OV-3 ovarian = tested on: SK-OV-3 ovarian
SF-539 CNS = tested on: SF-539 CNS
ACHN renal = tested on: ACHN renal
NCI-H23 lung = tested on: NCI-H23 lung
RPMI-8226 leukemia = tested on: RPMI-8226 leukemia
HL-60(TB) leukemia = tested on: HL-60(TB) leukemia
HOP-62 NSCLC = tested on: HOP-62 NSCLC
SK-MEL-5 melanoma = tested on: SK-MEL-5 melanoma
OVCAR-8 ovarian = tested on: OVCAR-8 ovarian
UACC-62 melanoma = tested on: UACC-62 melanoma
CAKI-1 renal = tested on: CAKI-1 renal
IGROV1 ovarian = tested on: IGROV1 ovarian
SNB-75 CNS = tested on: SNB-75 CNS
HT29 colon = tested on: HT29 colon
MDA-MB-231 breast = tested on: MDA-MB-231 breast
NCI-H226 lung = tested on: NCI-H226 lung
SK-MEL-28 melanoma = tested on: SK-MEL-28 melanoma
LOX IMVI melanoma = tested on: LOX IMVI melanoma
SF-295 CNS = tested on: SF-295 CNS
MOLT-4 leukemia = tested on: MOLT-4 leukemia
CCRF-CEM leukemia = tested on: CCRF-CEM leukemia
HS 578T breast = tested on: HS 578T breast
A549 NSCLC = tested on: A549 NSCLC
KM12 colon = tested on: KM12 colon
SR leukemia = tested on: SR leukemia
RXF 393 renal = tested on: RXF 393 renal
UO-31 renal = tested on: UO-31 renal
T-47D breast = tested on: T-47D breast
OVCAR-5 ovarian = tested on: OVCAR-5 ovarian
NCI-H460 lung = tested on: NCI-H460 lung
SW-620 colon = tested on: SW-620 colon
K-562 leukemia = tested on: K-562 leukemia
A498 renal = tested on: A498 renal
SF-268 CNS = tested on: SF-268 CNS
COLO 205 colon = tested on: COLO 205 colon
HCT-15 colon = tested on: HCT-15 colon
PC-3 prostate = tested on: PC-3 prostate
M14 melanoma = tested on: M14 melanoma
HCC-2998 colon = tested on: HCC-2998 colon
HCT-116 colon = tested on: HCT-116 colon
OVCAR-4 ovarian = tested on: OVCAR-4 ovarian
BT-549 breast = tested on: BT-549 breast
U251 CNS = tested on: U251 CNS
SK-MEL-2 melanoma = tested on: SK-MEL-2 melanoma
TK-10 renal = tested on: TK-10 renal
NCI/ADR-RES ovarian = tested on: NCI/ADR-RES ovarian
UACC-257 melanoma = tested on: UACC-257 melanoma
MDA-MB-435 = tested on: MDA-MB-435

Compound: O=C(/C=C/c1cccc2ccccc12)c1ccccc1
- TGI (786-0 renal): 23.5 µM
- TGI (SN12C renal): 24.9 µM
- TGI (EKVX NSCLC): 26.3 µM
- TGI (DU-145 prostate): 29 µM
- TGI (MALME-3M melanoma): 26.9 µM
- TGI (MDA-N): 23.9 µM
- TGI (NCI-H522 lung): 25.2 µM
- TGI (HOP-92 NSCLC): 33.6 µM
- TGI (SNB-19 CNS): 30.2 µM
- TGI (MCF7 breast): 15.1 µM
- TGI (OVCAR-3 ovarian): 22.4 µM
- TGI (SK-OV-3 ovarian): 34.2 µM
- TGI (SF-539 CNS): 15.6 µM
- TGI (ACHN renal): 26.9 µM
- TGI (NCI-H23 lung): 28 µM
- TGI (RPMI-8226 leukemia): 7.98 µM
- TGI (HL-60(TB) leukemia): > 21.2 µM
- TGI (HOP-62 NSCLC): 43 µM
- TGI (SK-MEL-5 melanoma): 28.4 µM
- TGI (OVCAR-8 ovarian): 21.6 µM
- TGI (UACC-62 melanoma): 25.3 µM
- TGI (CAKI-1 renal): 28 µM
- TGI (IGROV1 ovarian): 20.5 µM
- TGI (SNB-75 CNS): 30.6 µM
- TGI (HT29 colon): 15.8 µM
- TGI (MDA-MB-231 breast): 25.5 µM
- TGI (NCI-H226 lung): 27.9 µM
- TGI (SK-MEL-28 melanoma): 33.6 µM
- TGI (LOX IMVI melanoma): 4.53 µM
- TGI (SF-295 CNS): 35.1 µM
- TGI (MOLT-4 leukemia): > 34.7 µM
- TGI (CCRF-CEM leukemia): 87.3 µM
- TGI (HS 578T breast): > 74.9 µM
- TGI (A549 NSCLC): > 52.4 µM
- TGI (KM12 colon): > 42.2 µM
- TGI (SR leukemia): > 100 µM
- TGI (RXF 393 renal): 27.5 µM
- TGI (UO-31 renal): 16.3 µM
- TGI (T-47D breast): 27.3 µM
- TGI (OVCAR-5 ovarian): 28.8 µM
- TGI (NCI-H460 lung): 37.2 µM
- TGI (SW-620 colon): 15.5 µM
- TGI (K-562 leukemia): 8.69 µM
- TGI (A498 renal): 33.3 µM
- TGI (SF-268 CNS): 32.6 µM
- TGI (COLO 205 colon): 48.6 µM
- TGI (HCT-15 colon): 23.1 µM
- TGI (PC-3 prostate): 20.4 µM
- TGI (M14 melanoma): 32.9 µM
- TGI (HCC-2998 colon): 34.1 µM
- TGI (HCT-116 colon): 24.1 µM
- TGI (OVCAR-4 ovarian): 27.1 µM
- TGI (BT-549 breast): 28.5 µM
- TGI (U251 CNS): 22 µM
- TGI (SK-MEL-2 melanoma): 34.2 µM
- TGI (TK-10 renal): 17.6 µM
- TGI (NCI/ADR-RES ovarian): 33.6 µM
- TGI (UACC-257 melanoma): 29.7 µM
- TGI (MDA-MB-435): 24.1 µM
